Key:
Format in all cases: cell-based, mouse
[1] = tested on: β-galactosidase in CMV-LacZ C2C12 myoblasts; assay: CMV-LacZ secondary screen in C2C12 myoblasts (β-Gal stabilizing assay); conditions: CMV-LacZ C2C12 myoblasts
Method in brief: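 β-Gal level was the read-out, measured in a clonal C2C12 line expressing LacZ from a CMV promoter. Dose-response curves used six concentrations, 0.5 μM up to 40 μM, with duplicate points.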

[2] = tested on: α7 integrin (LacZ reporter in α7βgal+/− myoblasts); assay: Myoblast α7+/LacZ integrin FDG assay (Burkin assay in myoblasts, 96-well); conditions: α7+/LacZ myoblasts, 96-well
[3] = tested on: α7 integrin (LacZ reporter in α7+/LacZ myotubes); assay: Myotube α7 integrin FDG assay (Burkin assay in myotubes, 96-well); conditions: myotubes
[4] = tested on: β-galactosidase in CMV-LacZ C2C12 myotubes; assay: CMV-LacZ secondary screen in C2C12 myotubes (β-Gal stabilizing assay); conditions: C2C12 CMV-LacZ myotubes, fold relative to DMSO
Method in brief: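 β-gal stabilization was measured in C2C12 myoblasts or myotubes stably transfected with a CMV-driven LacZ construct, using the FDG β-gal assay. Compounds were tested in dose-response at 0.5, 1, 5, 10, 20 and 40 μM, with two replicates per point.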

Row | Structure (SMILES) | CMV-LACZ in Myoblasts (β-galactosidase activity relative to DMSO) ([1]; 0.5 uM) | CMV-LACZ in Myoblasts (β-galactosidase activity relative to DMSO) ([1]; 1 uM) | CMV-LACZ in Myoblasts (β-galactosidase activity relative to DMSO) ([1]; 5 uM) | CMV-LACZ in Myoblasts (β-galactosidase activity relative to DMSO) ([1]; 10 uM) | CMV-LACZ in Myoblasts (β-galactosidase activity relative to DMSO) ([1]; 20 uM) | CMV-LACZ in Myoblasts (β-galactosidase activity relative to DMSO) ([1]; 40 uM) | Burkin Assay in Myoblasts, signal relative to DMSO ([2]; 0.5 uM) | Burkin Assay in Myoblasts, signal relative to DMSO ([2]; 1 uM) | Burkin Assay in Myoblasts, signal relative to DMSO ([2]; 5 uM) | Burkin Assay in Myoblasts, signal relative to DMSO ([2]; 10 uM) | Burkin Assay in Myoblasts, signal relative to DMSO ([2]; 20 uM) | Burkin Assay in Myoblasts, signal relative to DMSO ([2]; 40 uM) | Burkin Assay in Myotubes, α7 integrin LacZ reporter signal relative to DMSO ([3]; 0.5 uM) | Burkin Assay in Myotubes, α7 integrin LacZ reporter signal relative to DMSO ([3]; 1 uM) | Burkin Assay in Myotubes, α7 integrin LacZ reporter signal relative to DMSO ([3]; 5 uM) | Burkin Assay in Myotubes, α7 integrin LacZ reporter signal relative to DMSO ([3]; 10 uM) | Burkin Assay in Myotubes, α7 integrin LacZ reporter signal relative to DMSO ([3]; 20 uM) | Burkin Assay in Myotubes, α7 integrin LacZ reporter signal relative to DMSO ([3]; 40 uM) | CMV-LACZ in Myotubes, signal relative to DMSO ([4]; 0.5 uM) | CMV-LACZ in Myotubes, signal relative to DMSO ([4]; 1 uM) | further results
1 | CCOc1ccc2nc(Cl)sc2c1 [MLS000678673-01] | 1.2106 | 1.1914 | 1.0561 | 0.8991 | 0.8674 | 0.9656 | 0.9325 | 1.054 | 1.044 | 0.9687 | 1.173 | 1.134 | 0.9772 | 0.9802 | 0.9767 | 0.9606 | 0.8655 | 0.781 | 1.1229 | 1.0286 | CMV-LACZ in Myotubes, signal relative to DMSO ([4]; 5 uM): 0.7918; CMV-LACZ in Myotubes, signal relative to DMSO ([4]; 10 uM): 0.9367; CMV-LACZ in Myotubes, signal relative to DMSO ([4]; 20 uM): 0.9635; CMV-LACZ in Myotubes, signal relative to DMSO ([4]; 40 uM): 1.1835
2 | CC(C)(C)Nc1nc(-c2ccc3c(c2)CCN3C(=O)C2CC2)cs1 [MLS001216939-01] | 1.0991 | 1.1134 | 1.0913 | 0.9452 | 1.1863 | 1.0644 | 1.123 | 1.2827 | 1.111 | 0.9828 | 0.8633 | 0.7865 | 1.193 | 1.185 | 1.07 | 1.06 | 0.8529 | 0.4743 | 1.0311 | 0.9748 | CMV-LACZ in Myotubes, signal relative to DMSO ([4]; 5 uM): 1.1826; CMV-LACZ in Myotubes, signal relative to DMSO ([4]; 10 uM): 1.2568; CMV-LACZ in Myotubes, signal relative to DMSO ([4]; 20 uM): 1.1518; CMV-LACZ in Myotubes, signal relative to DMSO ([4]; 40 uM): 0.9659
3 | CCOc1cc(C)c(S(=O)(=O)N2CCCCC2)cc1C [MLS000693795-01] | 0.9100 | 1.1104 | 0.9554 | 0.9207 | 0.8526 | 0.8730 | 1.1137 | 1.242 | 1.02 | 0.9728 | 1.187 | 1.24 | 0.8397 | 0.9171 | 0.9381 | 0.9384 | 1.002 | 0.9513 | 0.9771 | 1.0314 | CMV-LACZ in Myotubes, signal relative to DMSO ([4]; 5 uM): 1.1780; CMV-LACZ in Myotubes, signal relative to DMSO ([4]; 10 uM): 1.0774; CMV-LACZ in Myotubes, signal relative to DMSO ([4]; 20 uM): 1.0453; CMV-LACZ in Myotubes, signal relative to DMSO ([4]; 40 uM): 1.0716
